Data as given in PubChem BioAssay (NCI).
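Test compounds were applied to cells in 96-well plates for 48 hours at 5 doses. Here, GI50 denotes the concentration required for 50% inhibition of growth. TGI is the concentration that stops growth completely.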

Columns and labels:
Assay in all cases: DTP human tumour cell line panel, 48 h
[1] = test system: ACHN renal
[2] = test system: RPMI-8226 leukemia
[3] = test system: UO-31 renal
[4] = test system: A498 renal
[5] = test system: COLO 205 colon
[6] = test system: M14 melanoma
[7] = test system: KM12 colon
[8] = test system: HOP-92 NSCLC
[9] = test system: SN12C renal
[10] = test system: MOLT-4 leukemia

Row | SMILES | GI50 [1] [µM] | TGI [1] [µM] | GI50 [2] [µM] | TGI [2] [µM] | GI50 [3] [µM] | TGI [3] [µM] | GI50 [4] [µM] | TGI [4] [µM] | GI50 [5] [µM] | TGI [5] [µM] | GI50 [6] [µM] | TGI [6] [µM] | GI50 [7] [µM] | TGI [7] [µM] | GI50 [8] [µM] | TGI [8] [µM] | GI50 [9] [µM] | TGI [9] [µM] | TGI [10] [µM] | GI50 [10] [µM]
1 | CCSc1nc(N)c(C#N)c(-c2ccc(OC)c(OC)c2)c1C#N | > 50 | > 50 | 14.8 | > 50 | 15.9 | > 50 | 15.8 | 40.7 | 17.5 | > 50 | 18.7 | 45.7 | 15.2 | > 50 | 6.49 | > 50 | 15.1 | > 50 |  | 
2 | Cn1c(=O)c2[nH]c(CCS)nc2n(C)c1=O |  | > 100 |  | > 100 |  | > 100 |  | > 100 |  | > 100 |  | > 100 |  | > 100 |  | > 100 |  | > 100 | > 100 | 
3 | COc1cc2c3c(n(CCCN=[N+]=[N-])c(=O)c2cc1OC)-c1ccc(NC(C)=O)cc1C3=O | > 50 | > 50 | > 50 | > 50 | 46.2 | > 50 | > 50 | > 50 | > 50 | > 50 | > 50 | > 50 | > 50 | > 50 | > 50 | > 50 | > 50 | > 50 |  | 
4 | Cn1c(=S)c2[nH]c(SCc3cccnc3)nc2n(C)c1=O |  | > 100 |  | > 100 |  | > 100 |  | > 100 |  | > 100 |  | > 100 |  | > 100 |  | > 100 |  | > 100 | > 100 | 
5 | Cc1cccc(/C=N/N=C(\N)NO)n1 |  | > 100 |  |  |  |  |  | > 100 |  | > 100 |  | > 100 |  | > 100 |  | 98.3 |  | > 100 | > 100 | 
6 | CCN1Cc2c(/C=C/c3ccccc3)nc3ccc(OC)cc3c2N(c2cccc(Cl)c2)C1 | 1.61 | 3.08 | 1.65 | 4.71 | 1.38 | 2.95 | 1.5 | 3.86 | 1.59 | 3 | 2.04 | 4 | 1.81 | 3.49 | 1.62 | 3.77 | 2.43 | 7.82 | 5.02 | 1.45
7 | CC(C(=O)c1ccc(O)cc1)C1(O)C(=O)Nc2c(Cl)cc(Cl)cc21 (stereo unspecified) |  | 28.3 |  | 71.5 |  | > 100 |  | > 85.3 |  | > 100 |  | > 61.2 |  | > 100 |  | > 100 |  | > 100 | > 100 | 
8 | CCOC(=O)C1=C(Nc2cccc3ccccc23)OCC1=O |  | > 100 |  | > 100 |  | > 100 |  | > 100 |  | > 100 |  | > 100 |  | > 100 |  | > 100 |  | > 100 | > 100 | 
9 | CCC1C[N+]2=C(c3cc(OC)c(OC)cc3CC2)c2c1cc1n2CCc2cc(OC)c(OC)cc2-1 (stereo unspecified) | 14.7 | 30.1 | 0.576 | 15 | 18.4 | 46.8 | 7.36 | 33 | 1.23 | 3.71 | 3.66 | 14.6 | 1.5 | 10.9 | 1.78 | 6.08 | 1.93 | 11.8 | 23.6 | 3.97
10 | Cc1nc2sc(C(=O)Nc3cccc(Cl)c3C)c(N)c2cc1C(O)c1ccccc1 (stereo unspecified) | 0.0881 | 14.8 | 0.0388 | 3.05 | 0.0985 | 12.6 | 0.0158 | 0.059 | 0.0667 | 1.37 | 0.0291 | 13.1 | 0.0372 | 5.22 | 2.31 | 14.2 | 0.067 | 6.73 | 19.7 | 0.0673
11 | CN1CCC(n2cnc(-c3ccc(F)cc3)c2-c2ccnc(Nc3ccccc3)n2)CC1 | 1.14 | > 25 | > 20.8 | > 25 | 0.969 | > 11.7 | 7.77 | > 25 | 3.34 | 7.19 | 5.58 | 14.7 | 8.11 | > 25 | 5.18 | 24.6 | 7.09 | > 25 | > 25 | 12
12 | CNC(=O)NCCCCC(NC(=O)OCc1ccccc1)C(=O)OCc1ccccc1 (stereo unspecified) |  | 33.8 |  | 51.4 |  | 32.7 |  | > 100 |  | 31.9 |  | 31.3 |  | 71 |  | 89.2 |  | 51.1 | 40.9 | 
13 | [N-]=[N+]=Nc1nnc(CCCCc2nnc(N=[N+]=[N-])o2)o1 |  | > 100 |  |  |  | > 100 |  | > 100 |  | > 100 |  | > 100 |  | > 100 |  | > 100 |  | > 100 | > 100 | 
14 | O=C(CC(=O)c1cccc2ccccc12)C(=O)Nc1nccs1 |  | > 100 |  | > 100 |  | > 100 |  | > 100 |  | > 100 |  | > 100 |  | > 100 |  | > 100 |  | > 100 | > 100 | 
15 | CCOC(=O)/C(=C/c1ccccc1)N(CC)CC |  | > 100 |  | > 100 |  | > 100 |  | > 100 |  | > 100 |  | > 100 |  | > 100 |  | > 100 |  | > 100 | > 100 | 
16 | C=CC(=O)N1CCC(CNc2ncnc(N)c2-c2ccc(Oc3ccccc3)cc2)CC1 | 23.4 | 70.7 | 15.1 | 42.6 | 8.63 | 49.2 | 10.7 | 31.9 |  |  | 31.6 | > 100 | 28.7 | > 100 | 18.8 | 65.1 | 25.2 | > 100 | 66 | 18.6
17 | Clc1ccc2c(NCCNc3nc(N4CCCCC4)nc4ccccc34)ccnc2c1 | 1.79 | 3.59 |  |  | 1.39 | 2.79 | 10.2 | 22.1 | 1.19 | 2.84 | 1.82 | 3.61 | 3.39 | 12.7 | 1.62 | 3.24 | 2.13 | 6.84 | 11.8 | 2.29

Row | SMILES | GI50 [1] [µM] | TGI [1] [µM] | GI50 [2] [µM] | TGI [2] [µM] | GI50 [3] [µM] | TGI [3] [µM] | GI50 [4] [µM] | TGI [4] [µM] | GI50 [5] [µM] | TGI [5] [µM] | GI50 [6] [µM] | TGI [6] [µM] | GI50 [7] [µM] | TGI [7] [µM] | GI50 [8] [µM] | TGI [8] [µM] | GI50 [9] [µM] | TGI [9] [µM] | TGI [10] [µM] | GI50 [10] [µM]
18 | CC(C)=CC1(C)/C(=N\O)C(C)(CC(C)C)C(=O)N1O (stereo unspecified) |  | > 100 |  | > 100 |  | > 100 |  | > 100 |  | > 100 |  | > 100 |  | > 100 |  | > 100 |  | > 100 | > 100 | 
19 | NC(CCSCCF)C(=O)O (stereo unspecified) |  | > 100 |  | > 100 |  | > 100 |  | > 100 |  | > 100 |  | > 100 |  | > 100 |  | > 100 |  | > 100 | > 100 | 
20 | CC(=O)OCc1ncccc1C(OC(C)=O)OC(C)=O |  | > 100 |  |  |  | > 100 |  | > 100 |  | > 100 |  | > 100 |  | > 100 |  | > 100 |  | > 100 | > 100 | 
21 | COC(=O)[C@]12CC[C@@H](C)[C@H](C)[C@@H]1C1=CC[C@@H]3[C@@]4(C)C(C=O)=C[C@@](C)(COC(=O)c5ccco5)C4=CC[C@@]3(C)[C@]1(C)CC2 | 0.118 | 2.56 | 1.49 | 5.01 | 1.92 | 5.03 | 2.81 | 16.9 | 0.0247 | 0.0614 | 0.104 | 6.93 | 3.27 | 19.9 | 0.671 | 7.71 | 4.04 | > 100 | 7.1 | 2.11
22 | CCCCc1n(Cc2ccc3ccccc3n2)cc[n+]1Cc1ccc2ccccc2c1 | 2.89 | 8.8 | 0.265 | 1.36 | 3.22 | 13.6 | 1.18 | 4.45 | 0.502 | 1.79 | 0.769 | 2.45 | 0.715 | 2.11 | 0.22 | 1.11 | 0.685 | 2.21 | 3.61 | 1.06
23 | COc1ccccc1N1CCN(CC(O)Cn2c(=O)c3c(OC)nc(C)cc3c(=O)n2-c2ccccc2)CC1 (stereo unspecified) | 37.9 | > 100 | 39.6 | > 100 | > 100 | > 100 | 23.8 | 98.2 | > 100 | > 100 | > 100 | > 100 | > 100 | > 100 | 15.7 | 36 | > 100 | > 100 | > 100 | > 100
24 | O=C(O)c1ccccc1C(=O)Nc1cc2c(cc1Br)-c1ccccc1C2=O |  | > 100 |  | > 100 |  | > 100 |  | > 100 |  | > 100 |  | > 100 |  | > 100 |  | > 100 |  | > 100 | > 100 | 
25 | CC(=O)OCCC/C(=C/c1cc2ccccc2c2ccccc12)[N+](=O)[O-] | 1.64 | 3 | 1.27 | 5.74 | 1.09 | 2.3 | 1.38 | 2.72 | 1.67 | 3.03 | 1.56 | 2.9 | 1.56 | 2.89 | 1.38 | 3.7 | 1.75 | 3.75 | > 23 | 2.86
26 | NC(=S)N/N=C1/C(=O)N(c2ccccc2)C(=O)C1C(=O)Nc1ccccc1 (stereo unspecified) |  | > 100 |  |  |  | > 100 |  | > 100 |  | > 100 |  | > 100 |  | > 100 |  | > 100 |  | > 100 | > 100 | 
27 | COc1cc2ccnc(-c3n[nH]c4cc(OC)c(OC)cc34)c2cc1OC |  | > 100 |  | > 100 |  | > 100 |  | > 100 |  | > 100 |  | > 100 |  | > 100 |  | > 100 |  | > 100 | > 100 | 
28 | NCCNc1nc2ccc(F)cc2c2c(=O)c3cc(F)ccc3sc12 | 1.5 | 2.83 | 2.18 | 5.11 | 1.34 | 11.3 | 1.64 | 6.9 |  |  | 2.77 | 8.65 | 1.81 | 3.46 | 1.02 | 4.6 | 1.68 | 3.29 | 3.92 | 1.94
29 | CN(C)C(=S)/N=C(\N)N(C)C |  | > 100 |  | > 100 |  | > 100 |  | > 100 |  |  |  | > 100 |  | > 100 |  | > 100 |  | > 100 | > 100 | 
30 | O=C(/C=C/c1ccco1)N1CCN(Cc2ccccc2)CC1 |  | > 100 |  | > 100 |  | > 100 |  | > 100 |  |  |  | > 100 |  | > 100 |  | > 100 |  | > 100 | > 100 | 
31 | COc1ccc(-n2nc(C(=O)NCC(=O)Nc3nc4cc(OC)ccc4s3)c3ccccc3c2=O)cc1 | 1.1 | 8.7 |  | > 100 | 2.28 |  | 1.37 | 10.3 | 0.477 | 3.89 | 2.37 | > 42.9 |  |  | 0.572 | 1.68 | 3.45 | > 40.7 | > 100 | > 100
32 | CC(C)CCCC(C)[C@H]1CCC2C3CC=C4C[C@@H](OC(=O)CC(CC(=O)[O-])C(=O)[O-])CC[C@]4(C)C3CC[C@@]21C.N.N.[Pt+4] (stereo partly specified) | 47.6 | > 100 | > 100 | > 100 |  |  | > 100 | > 100 | > 100 | > 100 | > 100 | > 100 |  |  | > 100 | > 100 | > 100 | > 100 |  | 
33 | COc1ccccc1CNC(=O)/C=C/c1ccc(O)c(O)c1 | 24.5 | > 100 | 34.7 | > 100 | 20.5 | > 100 | > 100 | > 100 | 24.4 | > 100 | 72.4 | > 100 | 59.4 | > 100 | 48.4 | > 100 | 68.6 | > 100 |  | 
